Source: patent US20070020340A1, “Fish oil products for reducing cholesterol, low density lipoprotein, and hypertension” (priority 2005, published 2007)

Experiments:
[1] = test system: interleukin-1-beta; conditions: cited from earlier work
[2] = test system: hyperlipidemic rabbits; conditions: cholesterol-rich diet; cited from earlier work
[3] = compared with oleuropein, tyrosol, hydroxytyrosol; cited from earlier work
[4] = test system: men with moderately elevated cholesterol who also suffered from moderate to high hypertension; assay: 16-week study of fish oil (EPA/DHA) with or without allicin, oleuropein or Policosanol in eight treatment groups; assay type: in vivo, human; conditions: after sixteen weeks of daily treatment
Protocol: Eighty men with moderately elevated cholesterol who also suffered from moderate to high hypertension, were assigned to one of eight treatment groups, and followed for 16 weeks. The EPA and DHA administered was from fish oil and in free fatty acid form containing 3 grams of EPA and 2 grams of DHA, administered daily. Group one received fish oil alone. Group two received the same amount of fish oil with 5 mg allicin dissolved in the fish oil. Group three received the same amount of fish oil with 100 mg oleuropein dissolved therein. Group four received the same amount of fish oil with 10 mg of Policosanol dissolved therein. Group five received soft gelatin capsules with sunflower oil rather than fish oil. Group six received 5 mg of allicin dissolved in sunflower oil. Group seven received 100 mg oleuropein dissolved in sunflower oil. Group eight received Policosanol dissolved in sunflower oil. After sixteen weeks of treatment, the results were as follows: • 1. Group one registered 5% lowering of serum triglycerides. There was no change in HDL cholesterol and an 8% increase in LDL. Systolic blood pressure dropped by average of 3% and diastolic blood pressure dropped by average of 2%. • 2. Group two registered a 30% lowering of triglycerides, 12% decrease in LDL, and 8% increase in HDL. Both systolic and diastolic blood pressure dropped by an average of 10% • 3. Group three registered a 25% lowering of serum triglycerides, 10% decrease of LDL, and 10% increase in HDL. Systolic pressure dropped by average of 12% and diastolic pressure dropped by average of 10% • 4. Group four registered 20% lowering of serum triglycerides, 12% decrease of LDL, and 8% increase in HDL. Systolic and diastolic pressure dropped by average of 10%. • 5. Group five had no change in any of the parameters tested. • 6. Group six registered 3% lowering of serum triglycerides, 6% lowering of LDL and 2% increase of HDL. Sistolic and diastolic pressure dropped by average of 5% • 7. […] Systolic blood pressure dropped by average of 7% and diastolic pressure dropped by average of 5%. • 8. Group eight registered 10% lowering of serum triglycerids, 8% lowering of LDL, and 5% increase of HDL.

| Compound | concentration of interleukin-1-beta [1] | diastolic blood pressure dropped by average of [4] | lowering of serum triglycerides [4] | systolic blood pressure dropped by average of [4] | further results |
| --- | --- | --- | --- | --- | --- |
| C/C=C1/[C@H](O[C@@H]2O[C@H](CO)[C@@H](O)[C@H](O)[C@H]2O)OC=C(C(=O)OC)[C@H]1CC(=O)OCCc1ccc(O)c(O)c1 [oleuropein glycoside] | decreased | – | – | – | – |
| C=CCS[S+]([O-])CC=C (stereo not drawn) [allicin] | – | – | – | – | effect on the serum lipid profile [2]: beneficial effect |
| COc1cc(CCO)ccc1O [homovanillic alcohol] | – | – | – | – | antioxidant potency [3]: significantly more potent antioxidant than the other phenolics |
| O=C(O)/C=C/c1ccc(O)c(O)c1 [carreic acid] | decreased | – | – | – | – |
| C=CCS[S+]([O-])CC=C (stereo not drawn) [Group six, allicin] | – | 5% | 3% | 5% | decrease in LDL [4]: 6%; increase in HDL [4]: 2% |
| C/C=C1/[C@H](O[C@@H]2O[C@H](CO)[C@@H](O)[C@H](O)[C@H]2O)OC=C(C(=O)OC)[C@H]1CC(=O)OCCc1ccc(O)c(O)c1 [Group seven, oleuropein] | – | 5% | 12% | 7% | – |
